Source: ChEMBL document CHEMBL1154116, “Predictive models, based on classification algorithms, for compounds potentially active as mitochondrial ATP-sensitive potassium channel openers” (Bioorg Med Chem, 2009)
Active and inactive are the calls of the source. How the calls were made is not given here.

The compounds below were run on Heart (assay: Cardioprotective effect in Langendorff perfused isolated rat hearts assessed as reduction in ischemic injury).
Format: functional, tissue-based

| Structure (SMILES) | Activity |
| --- | --- |
| CC1(C)CN(C2=CCCC2=O)c2cc([N+](=O)[O-])ccc2S1 | Active |
| CC1(C)CC2(OC(=O)N(Cc3ccc(NS(C)(=O)=O)cc3)C2=N)c2cc(Br)ccc2O1 (stereo not given) | inactive |
| COc1cccc(CN2CCOC3(C2)CC(C)(C)Oc2ccccc23)c1 (stereo not given) | inactive |
| COc1ccc(CN2CC3(CC(C)(C)Oc4ccc(Br)cc43)OCC2=O)cc1 (stereo not given) | Active |
| Cc1ccc(CN2CCOC3(C2)CC(C)(C)Oc2ccccc23)cc1 (stereo not given) | Active |
| CC1(C)CC2(CN(Cc3ccc(NS(C)(=O)=O)cc3)C(=O)CO2)c2cc(Br)ccc2O1 (stereo not given) | Active |
| CC1(C)CC2(CN(Cc3ccc(C(F)(F)F)cc3)CCO2)c2ccccc2O1 (stereo not given) | inactive |
| COc1cccc(CN2CCOC3(C2)CC(C)(C)Oc2ccc(Br)cc23)c1 (stereo not given) | Active |
| CC1(C)CC2(CN(Cc3ccc(N)cc3)CCO2)c2cc(Br)ccc2O1 (stereo not given) | inactive |
| Cc1ccc(CN2CCOC3(C2)CC(C)(C)Oc2ccc(Br)cc23)cc1 (stereo not given) | Active |
| CC1(C)CC2(CN(Cc3ccc(NS(C)(=O)=O)cc3)CCO2)c2ccccc2O1 (stereo not given) | inactive |
| CC1(C)CC2(CN(S(=O)(=O)c3ccccc3)CCO2)c2ccccc2O1 (stereo not given) | inactive |
| CC1(C)CN(C2=CCCC2=O)c2cc(C(F)(F)F)ccc2S1 | Active |
| Cc1ccc(CN2CC3(CC(C)(C)Oc4ccc(Br)cc43)OCC2=O)cc1 (stereo not given) | inactive |
| CC1(C)CC2(CN(Cc3ccc(Br)cc3)CCO2)c2ccccc2O1 (stereo not given) | inactive |
| CC1(C)CC2(CN(Cc3ccc(Br)cc3)C(=O)CO2)c2ccccc2O1 (stereo not given) | Active |
| CC(=O)Nc1ccc(CN2C(=N)C3(CC(C)(C)Oc4ccccc43)OC2=O)cc1 (stereo not given) | Active |
| CC1(C)CC2(CN(Cc3ccc(Br)cc3)C(=O)CO2)c2cc(Br)ccc2O1 (stereo not given) | inactive |
| CC(=O)Nc1ccc(CN2CC3(CC(C)(C)Oc4ccccc43)OCC2=O)cc1 (stereo not given) | Active |
| CC1(C)CC2(CN(Cc3ccc(N)cc3)CCO2)c2ccccc2O1 (stereo not given) | Active |

| Structure (SMILES) | Activity |
| --- | --- |
| CC1(C)CC2(CN(Cc3ccccc3)C(=S)CO2)c2ccccc2O1 (stereo not given) | Active |
| CC1(C)CC2(CN(Cc3ccc(NS(C)(=O)=O)cc3)CCO2)c2cc(Br)ccc2O1 (stereo not given) | Active |
| CC1(C)CC2(CN(Cc3ccc(C(F)(F)F)cc3)C(=O)CO2)c2cc(Br)ccc2O1 (stereo not given) | inactive |
| Cc1ccc(CN2CC3(CC(C)(C)Oc4ccccc43)OCC2=O)cc1 (stereo not given) | inactive |
| CC1(C)CC2(OC(=O)N(Cc3ccccc3)C2=N)c2cc(Br)ccc2O1 (stereo not given) | inactive |
| CC1(C)Oc2ccc(C#N)cc2C(N2CCCC2=O)C1O (stereo not given) | Active |
| CC1(C)CC2(CN(Cc3ccccc3)CCO2)c2ccccc2O1 (stereo not given) | Active |
| CC1(C)CC2(OC(=O)N(Cc3ccc(NS(C)(=O)=O)cc3)C2=N)c2ccccc2O1 (stereo not given) | inactive |
| CC1(C)CC2(CN(Cc3ccccc3)CCO2)c2cc(Br)ccc2O1 (stereo not given) | inactive |
| COc1ccc(CN2CCOC3(C2)CC(C)(C)Oc2ccc(Br)cc23)cc1 (stereo not given) | inactive |
| CC1(C)CC2(CN(Cc3ccc(C(F)(F)F)cc3)C(=O)CO2)c2ccccc2O1 (stereo not given) | inactive |
| CC(N/C(=N\C#N)Nc1ccncc1)C(C)(C)C (stereo not given) | Active |
| CC1(C)Oc2ccc(C#N)cc2[C@H](N(Cc2ncc[nH]2)c2ccc(Cl)cc2)[C@H]1O | Active |
| COc1cccc(CN2CC3(CC(C)(C)Oc4ccccc43)OCC2=O)c1 (stereo not given) | inactive |
| CC1(C)CC2(CN(Cc3ccc(N)cc3)C(=O)CO2)c2ccccc2O1 (stereo not given) | Active |
| CC1(C)CC2(CN(Cc3ccccc3)C(=O)CO2)c2ccccc2O1 (stereo not given) | inactive |
| COc1cccc(CN2CC3(CC(C)(C)Oc4ccc(Br)cc43)OCC2=O)c1 (stereo not given) | inactive |
| Cc1ccc(C(=O)N2CCOC3(C2)CC(C)(C)Oc2ccccc23)cc1 (stereo not given) | inactive |
| CC1(C)CC2(CN(Cc3ccc(NS(C)(=O)=O)cc3)C(=O)O2)c2ccccc2O1 (stereo not given) | inactive |
| CC(=O)Nc1ccc(CN2CC3(CC(C)(C)Oc4ccccc43)OC2=O)cc1 (stereo not given) | inactive |

| Structure (SMILES) | Activity |
| --- | --- |
| CC1(C)CC2(CN(Cc3ccccc3)C(=O)CO2)c2cc(Br)ccc2O1 (stereo not given) | inactive |
| CC(=O)Nc1ccc(CN2CC3(CC(C)(C)Oc4ccc(Br)cc43)OCC2=O)cc1 (stereo not given) | inactive |
| CC1(C)CC2(CN(C(=O)c3ccccc3)CCO2)c2ccccc2O1 (stereo not given) | inactive |
| CC(=O)Nc1ccc(C(=O)N2CCOC3(C2)CC(C)(C)Oc2ccccc23)cc1 (stereo not given) | inactive |
| CC1(C)Oc2ccc(C#N)cc2[C@@H](/N=C(\NC#N)Nc2ccc(Cl)cc2)[C@@H]1O (single isomer, unassigned) | Active |
| COc1ccc(CN2CCOC3(C2)CC(C)(C)Oc2ccccc23)cc1 (stereo not given) | Active |
| CC1(C)CC2(CN(Cc3ccccc3)C(=S)CO2)c2cc(Br)ccc2O1 (stereo not given) | inactive |
| CC1(C)CC2(CN(Cc3ccc(C(F)(F)F)cc3)CCO2)c2cc(Br)ccc2O1 (stereo not given) | Active |
| CC1(C)CC2(CN(C(=O)c3ccccc3)C(=O)CO2)c2ccccc2O1 (stereo not given) | inactive |
| CC1(C)CC2(CN(S(=O)(=O)c3ccccc3)C(=O)CO2)c2ccccc2O1 (stereo not given) | inactive |
| CC1=Nc2ccc(Cl)cc2S(=O)(=O)N1 | Active |
| CCC(C)(C)/N=C(\NC#N)Nc1cccnc1 | inactive |
| CC1(C)CN(C2=CCCC2=O)c2cc(C#N)ccc2S1 | Active |
| COc1ccc(CN2CC3(CC(C)(C)Oc4ccccc43)OCC2=O)cc1 (stereo not given) | inactive |
| CC1(C)CC2(CN(Cc3ccc(NS(C)(=O)=O)cc3)C(=O)CO2)c2ccccc2O1 (stereo not given) | Active |
| COc1ccccc1CN1CC2(CC(C)(C)Oc3ccccc32)OCC1=O (stereo not given) | Active |
| CC(=O)Nc1ccc(CN2CCOC3(C2)CC(C)(C)Oc2ccccc23)cc1 (stereo not given) | inactive |
| CC1(C)CC2(CN(Cc3ccc(N)cc3)C(=O)CO2)c2cc(Br)ccc2O1 (stereo not given) | Active |
| COc1ccccc1CN1CC2(CC(C)(C)Oc3ccc(Br)cc32)OCC1=O (stereo not given) | Active |
| CC(=O)Nc1ccc(CN2CCOC3(C2)CC(C)(C)Oc2ccc(Br)cc23)cc1 (stereo not given) | inactive |
